Experimental data reported in publication PMC6713628 (Investigational new drugs, 2019).
Where two headings read alike, the source gives them in different places.

What was measured:
[1] = for IIV of clearance: univariate analysis
white blood cells = assay: Emax model of percent decrease of WBC from baseline to nadir versus exposure; format: in vivo, cancer patients with solid tumors (humans)
[2] = more lipophilic than camptothecin; cited from earlier work
UGT1A1 = conditions: primarily hepatic UGT1A1; cited from earlier work
[3] = lactone form; ref 32 (Leggas et al., 2009); cited from earlier work
platelets = format: in vivo, cancer patients with solid tumors (humans); conditions: sigmoid Emax model

With `CC[C@@]1(O)C(=O)OCc2c1cc1n(c2=O)Cc2c-1nc1ccc(O)cc1c2[Si](C)(C)C(C)(C)C` [AR-67, 7-t-butyldimethylsilyl-10-hydroxycamptothecin] the “AGE on V1 (covariate effect exponent), estimate” value ([1]; V1=V1TV×(AGE/62)^θ, original dataset) was 3.36, the “Interindividual variability in V1” value ([1]; before incorporation of age into the model) was 118% and the “AGE on V1, bootstrap median” value ([1]; bootstrap n=1000 datasets) was 3.48. The “CL, bootstrap median” value ([1]; bootstrap n=1000 datasets) was 31.9 L/h, the “Q, bootstrap median” value ([1]; bootstrap n=1000 datasets) was 29.0 L/h and the “V1, bootstrap median” value ([1]; bootstrap n=1000 datasets) was 6.65 L. The “V2, bootstrap median” value ([1]; bootstrap n=1000 datasets) was 25.8 L, the “ω2 V1, bootstrap median” value ([1]; bootstrap n=1000 datasets) was 0.856 and the “Interindividual variability (CV%) of population CL” value ([1]; final model) was 29.1%. The “V2 (peripheral volume), population estimate” value ([1]; final model, original dataset) was 25.0 L, the “ω2 CL (interindividual variability), estimate” value ([1]; final model, original dataset) was 0.0849 and the “ω2 V1 (interindividual variability), estimate” value ([1]; final model, original dataset) was 0.957. For the same compound, the “V1 (central volume), population estimate” value ([1]; final model, original dataset, typical value for subjects aged 62 years) was 6.83 L, the “Interindividual variability (CV%) of population V1” value ([1]; final model, with age as covariate) was 97.8% and the IIV of clearance ([1]; BSA included as covariate on CL) was 25.5%. For the same compound, the IIV of clearance ([1]; before inclusion of BSA) was 29.2%, the “AUC ED50, percent decrease of WBC” value (white blood cells; AUC0-∞ as independent variable, hyperbolic Emax model, 22 patients, Cycle 1) was 397.6 ng·h/mL and the “Cmax ED50, percent decrease of WBC” value (white blood cells; Cmax as independent variable, sigmoid Emax model) was 326.8 ng/mL. For the same compound, the “lipophilicity relative to camptothecin” value [2] was “about 25 times”, the “in vitro interaction with UGT1A1” value (UGT1A1) was “weak” and the “overall protein binding, lactone” value [3] was 95.4%. For the same compound, the “AUC ED50, percent decrease of platelets” value (platelets; AUC0-∞ as independent variable, 22 patients, Cycle 1) was 276.8 ng·h/mL and the “Cmax ED50, percent decrease of platelets” value (platelets; Cmax as independent variable) was 281.1 ng/mL.
